Measured values taken from paper PMC4074815, “An Impermeant Ganetespib Analog Inhibits Extracellular Hsp90-Mediated Cancer Cell Migration that Involves Lysyl Oxidase 2-like Protein” (Cancers, 2014).

Molecular target: T1, Hsp90 alpha (Homo sapiens, UniProt P07900)
T1 construct: gene HSP90AA1; Hsp90alpha recombinant enzyme (BPS Bioscience Hsp90α assay kit, Cat #50294)
Experiment: fluorescence polarization competition with FITC-labeled geldanamycin
Type: binding

CC(C)c1cc(-c2nnc(O)n2-c2ccc3c(ccn3CCNC(=O)CCCC[C@@H]3SC[C@@H]4NC(=O)N[C@@H]43)c2)c(O)cc1O [STA-12-7191]
IC50: 62 nM
